According to patent US5948803A, “N-substituted dioxothiazolidylbenzamide derivatives and process for producing the same” (Kyorin Pharmaceutical Co., Ltd., priority 1995, dated 1999):
pIC50: −log10 of the molar value.

How the values were obtained:
[1] = system: inherited obese mice (C57BL ob/ob); assay: Blood sugar-lowering effect in glucose tolerance test, inherited obese mice (C57BL ob/ob); assay type: in vivo, mouse (C57BL ob/ob); conditions: 10 mg/kg oral, 5 days; glucose 2 g/kg orally after overnight fasting; blood sugar at 0, 30 and 60 minutes
Protocol: Employing inherited obese mice (C57BL ob/ob), prior to test, the blood sugar level was determined by collecting blood from caudal vein. The mice were grouped so as not to cause any difference in the blood sugar level, and the compounds of Example 16, 17 and 29 were administered orally for 5 days at a dosage of 10 mg/kg. For the glucose tolerance test, 2 g/kg of glucose were administered orally after fasting overnight and the blood sugar levels at 0 minute, 30 minutes and 60 minutes were determined. The blood sugar-lowering rate was calculated from following formula. [formula]

aldose reductase = target: T1, aldose reductase (Rattus norvegicus, UniProt P07943); assay: In-vitro inhibitory effect against aldose reductase extracted from rat lens (method of Hayman and Kinoshita); assay type: biochemical
T1 construct: aldose reductase extracted from rat lens; from tissue; host or cells: rat lens
From the text: Against aldose reductase extracted from rat lens, the in-vitro inhibitory effect of the compound of Example 16 was investigated by the method of Hayman and Kinoshita (Journal of Biological Chemistry, vol. 240, p. 877 (1965)).

[2] = system: inherited obese mice (C57BL ob/ob); assay: Triglyceride-lowering effect in blood, inherited obese mice (C57BL ob/ob); assay type: in vivo, mouse (C57BL ob/ob); conditions: 2 weeks
Protocol: Employing inherited obese mice (C57BL ob/ob), the compound of Example 16 was administered orally for 2 weeks at following dosages, and thereafter the triglyceride level in blood was determined. The triglyceride-lowering rate in blood was calculated from following formula. [formula]

| pIC50 (aldose reductase) | Structure (SMILES) | Blood sugar-depressing rate [1] | In-blood triglyceride depressing rate ([2]; 3 mg/kg oral) | In-blood triglyceride depressing rate ([2]; 10 mg/kg oral) |
| --- | --- | --- | --- | --- |
| – | COc1ccc(C2SC(=O)NC2=O)cc1C(=O)NCc1cccc(C(F)(F)F)c1 (stereo not drawn) [Example 17] | 42% | – | – |
| – | O=C1NC(=O)C(c2ccc(F)c(C(=O)NCc3ccc(C(F)(F)F)cc3)c2)S1 (stereo not drawn) [Example 29] | 30% | – | – |
| 7.64 | COc1ccc(C2SC(=O)NC2=O)cc1C(=O)NCc1ccc(C(F)(F)F)cc1 (stereo not drawn) [Example 16, N-(4-trifluoromethylbenzyl)-5-(2,4-dioxothiazolidin-5-yl)-2-methoxybenzamid] | 48% | 51% | 70% |
